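1) Cells in 96-well plates. 2) Compound, 48 h, 5 concentrations. 3) Linear interpolation between surrounding doses. 4) Unreached endpoint = highest concentration. GI50 = concentration required for 50% inhibition of growth. TGI: concentration producing complete growth inhibition.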
Experiments:
Test in all cases: NCI tumour cell line growth inhibition, 48 h
HS 578T breast = test system: HS 578T breast
NCI-H522 lung = test system: NCI-H522 lung
CCRF-CEM leukemia = test system: CCRF-CEM leukemia
M14 melanoma = test system: M14 melanoma
DU-145 prostate = test system: DU-145 prostate
MDA-MB-435 = test system: MDA-MB-435
HCC-2998 colon = test system: HCC-2998 colon
NCI-H23 lung = test system: NCI-H23 lung
HCT-116 colon = test system: HCT-116 colon
OVCAR-8 ovarian = test system: OVCAR-8 ovarian

Compound | GI50 (HS 578T breast) [µM] | TGI (HS 578T breast) [µM] | GI50 (NCI-H522 lung) [µM] | TGI (NCI-H522 lung) [µM] | GI50 (CCRF-CEM leukemia) [µM] | TGI (CCRF-CEM leukemia) [µM] | GI50 (M14 melanoma) [µM] | TGI (M14 melanoma) [µM] | GI50 (DU-145 prostate) [µM] | TGI (DU-145 prostate) [µM] | GI50 (MDA-MB-435) [µM] | TGI (MDA-MB-435) [µM] | GI50 (HCC-2998 colon) [µM] | TGI (HCC-2998 colon) [µM] | GI50 (NCI-H23 lung) [µM] | TGI (NCI-H23 lung) [µM] | GI50 (HCT-116 colon) [µM] | TGI (HCT-116 colon) [µM] | GI50 (OVCAR-8 ovarian) [µM] | TGI (OVCAR-8 ovarian) [µM]
C[C@@H](Oc1cc(-c2cnn(C3CC4(CNC4)C3)c2)cnc1N)c1c(Cl)ccc(F)c1Cl | 3.87 | 27.1 | 10.2 | 25.4 | 0.681 | 6.97 | 1.57 | 3.37 | 5.45 | 18.1 | 1.16 | 14.2 | 5.42 | 19.7 | 1.97 | 16 | 2.09 | 8.87 | 10.4 | 24.3
COc1ccc(-c2nnc(Nc3nc(O)c(C4=c5cc(OC(F)(F)F)ccc5=NC4=O)s3)o2)cc1 | 38.3 | > 100 | 32.4 | > 100 | 25.5 | 51.1 | 8.76 | 28.5 | 23.4 | 87.1 | 7.46 | > 100 | 13.4 | 28.6 | 14.1 | 30.6 | 12.5 | 25.4 | 22.7 | 99.5
O=Cc1c[nH]c2ccc(-c3csc4ccccc34)cc12 | 2.3 | 9.55 | 3.23 | > 100 | 2.64 | 10.6 | 3.19 | > 100 | 3.18 | 22.2 | 1.24 | 3.66 | 15.5 | > 100 | 18.2 | > 100 | 3.6 | > 100 | 3.47 | > 100
COc1ccc(C2=NNC(c3cc(Cc4ccc(O)c(C5CC(c6ccc(OC)cc6)=NN5)c4)ccc3O)C2)cc1 (stereo not given) | 5.58 | 68 | 3.64 | 23.4 | 3.85 | > 100 | 10.4 | 38.3 | 29.8 | > 100 | 8.52 | > 100 | 46 | > 100 | 5.3 | > 100 | 4.11 | 15.9 | 6.36 | > 100
CCc1ccc(Oc2nccc(-c3c(-c4ccc(F)cc4)ncn3C3CCNCC3)n2)cc1 | 7.01 | 17.1 | 4.73 | 8.67 | 6.77 | 17.8 | 5.46 | 10.8 | 5.83 | 14 | 4.47 | 8.77 | 3.94 | 7.61 | 10.7 | 15.1 | 5.84 | 13.9 | 4.7 | 10.6
Nc1cccc2c1CN(C1CCC(=O)NC1=O)C2=O (stereo not given) | > 100 | > 100 | > 100 | > 100 | > 100 | > 100 | > 100 | > 100 | > 100 | > 100 | > 100 | > 100 | > 100 | > 100 | > 100 | > 100 | > 100 | > 100 | > 100 | > 100
O=C1c2cccc3cccc(c23)C(=O)N1CC#Cc1ccc2c3c(cccc13)C(=O)N(CCN1CCNCC1)C2=O | 11.2 | 33.7 | 2.03 | 5.04 | 2.01 | 5.06 | 2.53 | 6.19 | 2.06 | 4.12 | 1.86 | 3.47 | 2.1 | 4.94 | 2.38 | 5.74 | 2.12 | 4.79 | 2.18 | 5.16
NC(Cn1ccc(=O)c(O)c1)C(=O)O (stereo not given) | – | > 100 | – | > 100 | – | > 100 | – | > 100 | – | > 100 | – | > 100 | – | > 100 | – | > 100 | – | > 100 | – | > 100
Cc1ccc2c(n1)C(=O)C(Cl)=C(Nc1ccc(N3CCN(C)CC3)cc1)C2=O | 2.47 | 7.49 | 1.86 | 4.78 | 3.07 | 56.4 | 1.84 | 3.32 | 1.76 | 3.25 | 1.88 | 3.46 | 4.54 | 17.5 | 1.79 | 3.75 | 1.67 | 3.19 | 1.85 | 3.4
O=C1C=CC(=O)c2c1cc1ccccc1c2O | – | 38.9 | – | 3.98 | – | 5.91 | – | 26.5 | – | 28.3 | – | 19.2 | – | 32.8 | – | 27.6 | – | 4.05 | – | 8.96
COc1ccc(Oc2nc(Nc3ccc(N4CCOCC4)cc3)ncc2NC(=O)Nc2cc(OC)cc(OC)c2)cc1 | 8 | > 33.3 | 3.94 | 21.7 | > 33.3 | > 33.3 | 3.02 | 14.1 | 1.66 | 7.59 | 2.33 | 17.1 | 2.11 | 7.16 | 2.69 | 23.4 | 1.14 | 3.27 | 4.65 | > 33.3
S=C(Nc1ccc(Cl)cc1)SC1CCCCC1 | – | > 100 | – | 44.6 | – | > 100 | – | 42.7 | – | > 100 | – | > 100 | – | 39.3 | – | 45.4 | – | 70.8 | – | > 100
Oc1[nH]c2ccc(Cl)cc2c1/C=c1/ccc2c(c1)N=C(c1ccc(C(F)(F)F)cc1)N=2 | 2.4 | 6.86 | 1.66 | 3.24 | 2.43 | 6.96 | 1.67 | 3.34 | 3.12 | 10.4 | 1.9 | 4.7 | 2.1 | 4.81 | 3.08 | 13.6 | 1.98 | 5.02 | 3.17 | 11.4

Source: PubChem BioAssay (NCI)
